Test results from patent US20050171358A1 (priority 2002, published 2005).

Assays:
Pyricularia oryzae = assay type: in vivo; conditions: 200 ppm spray on rice (Koshihikari, 3 leaf stage), inoculated next day; lesion numbers on third leaves after 7 days in green house, graded by Table 5
[1] = test system: Colletotrichum lagenarium; conditions: 200 ppm spray on cucumber (3 leaf stage), inoculated next day; lesion numbers on first and second leaves after 7 days in green house, graded by Table 5

Row | SMILES | Evaluation (effect for rice blast) (Pyricularia oryzae) | Evaluation (effect for cucumber anthracnose) [1]
1 | COc1ccc(C(=O)NCc2cc(-c3ccccc3Cl)no2)cc1 [III-231, N-{[3-(2-chlorophenyl)-5-isoxazolyl]methyl}-4-methoxybenzamide] | 5 (0) | 5 (0)
2 | COc1ccc(C(=O)NCc2cc(-c3nc(-c4ccccc4)no3)no2)cc1 [III-232, N-{[3-(3-phenyl-1,2,4-oxadiazol-5-yl)-5-isoxazolyl]methyl]-4-methoxybenzamide] | 3 (6˜10) | 2 (11˜20)
3 | CCCCc1cc(CNC(=O)c2ccc(OC)cc2)on1 [III-235, N-[(3-butyl-5-isoxazolyl)methyl]-4-methoxybenzamide] | 4 (1˜5) | 4 (1˜5)
4 | CCC(C)c1cc(CNC(=O)c2ccc(OC)cc2)on1 (stereo not shown) [III-236, N-[(3-sec-butyl-5-isoxazolyl)methyl]-4-methoxybenzamide] | 4 (1˜5) | 4 (1˜5)
5 | COc1ccc(C(=O)NCc2cc(C(C)(C)C)no2)cc1 [III-237, N-[(3-tert-butyl-5-isoxazolyl)methyl]-4-methoxybenzamide] | 3 (6˜10) | 3 (6˜10)
6 | COc1ccc(C(=O)NCc2cc(C3CCCCC3)no2)cc1 [III-238, N-[(3-cyclohexyl-5-isoxazolyl)methyl]-4-methoxybenzamide] | 4 (1˜5) | 5 (0)
7 | Cc1ccc(-c2cc(CNC(=O)c3cc(Cl)nc(Cl)c3)on2)cc1 [III-240, N-{[3-(4-tolyl)-5-isoxazolyl]methyl}-2,6-dichloropyridine-4-carboxamide] | 2 (11˜20) | 2 (11˜20)
8 | CC(C)c1cc(CNC(=O)c2cc(Cl)nc(Cl)c2)on1 [III-243, N-[(3-isopropyl-5-isoxazolyl)methyl]-2,6-dichloropyridine-4-carboxamide] | 2 (11˜20) | 1 (21˜41)
9 | CCCc1cc(CNC(=O)c2ccc(OC)cc2)on1 [III-245, N-[(3-propyl-5-isoxazolyl)methyl]-4-methoxybenzamide] | 5 (0) | 5 (0)
10 | CCCC(C)c1cc(CNC(=O)c2ccc(OC)cc2)on1 (stereo not shown) [III-246, N-[(3-sec-pentyl-5-isoxazolyl)methyl]-4-methoxybenzamide] | 3 (6˜10) | 3 (6˜10)
11 | COc1ccc(C(=O)NCc2cc(-c3ccc(C)o3)no2)cc1 [III-247, N-{[3-(2-methylfuran-5-yl)-5-isoxazolyl]methyl}-4-methoxybenzamide] | 5 (0) | 5 (0)
12 | CCCCCC#Cc1cc(CNC(=O)c2ccc(OC)cc2)on1 [III-248, N-{[3-(1-heptynyl)-5-isoxazolyl]methyl}-4-methoxybenzamide] | 3 (6˜10) | 2 (11˜20)
13 | COc1ccc(C(=O)NCc2cc(C(OC)OC)no2)cc1 [III-249, N-[(3-dimethoxymethyl-5-isoxazolyl)methyl]-4-methoxybenzamide] | 2 (11˜20) | 2 (11˜20)
14 | COc1ccc(C(=O)NCc2cc(ON=C(C)C)no2)cc1 [III-250, N-[(3-isopropyliminoxy-5-isoxazolyl)methyl]-4-methoxybenzamide] | 2 (11˜20) | 2 (11˜20)
15 | Cc1ccc(C(=O)NCc2cc(CC(C)C)no2)cc1 [III-251, N-[(3-isobutyl-5-isoxazolyl)methyl]-4-methylbenzamide] | 5 (0) | 5 (0)
16 | CC(C)Cc1cc(CNC(=O)c2ccc(Cl)cc2)on1 [III-252, N-[(3-isobutyl-5-isoxazolyl)methyl]-4-chlorobenzamide] | 5 (0) | 5 (0)
17 | CC(C)Cc1cc(CNC(=O)c2ccc(Cl)cc2Cl)on1 [III-253, N-[(3-isobutyl-5-isoxazolyl)methyl]-2,4-dichlorobenzamide] | 5 (0) | 5 (0)
18 | CC(C)Cc1cc(CNC(=O)c2ccc(Cl)c(Cl)c2)on1 [III-255, N-[(3-isobutyl-5-isoxazolyl)methyl]-3,4-dichlorobenzamide] | 4 (1˜5) | 4 (1˜5)
19 | CC(C)Cc1cc(CNC(=O)c2ccc(Br)cc2)on1 [III-256, N-[(3-isobutyl-5-isoxazolyl)methyl]-4-bromobenzamide] | 5 (0) | 5 (0)
20 | CC(C)Cc1cc(CNC(=O)c2ccc(C(F)(F)F)cc2)on1 [III-257, N-[(3-isobutyl-5-isoxazolyl)methyl]-4-trifluoromethylbenzamide] | 3 (6˜10) | 4 (1˜5)
21 | CCc1ccc(C(=O)NCc2cc(CC(C)C)no2)cc1 [III-258, N-[(3-isobutyl-5-isoxazolyl)methyl]-4-ethylbenzamide] | 5 (0) | 4 (1˜5)

Row | SMILES | Evaluation (effect for rice blast) (Pyricularia oryzae) | Evaluation (effect for cucumber anthracnose) [1]
22 | CC(C)Cc1cc(CNC(=O)c2ccc3ccccc3c2)on1 [III-259, N-[(3-isobutyl-5-isoxazolyl)methyl]-2-naphthalenecarboxamide] | 5 (0) | 4 (1˜5)
23 | CC(C)Cc1cc(CNC(=O)c2cccc3ccccc23)on1 [III-262, N-[(3-isobutyl-5-isoxazolyl)methyl]-1-naphthalenecarboxamide] | 5 (0) | 5 (0)
24 | CCCc1cc(CNC(=O)c2ccc(Cl)cc2)on1 [III-263, N-[(3-propyl-5-isoxazolyl)methyl]-4-chlorobenzamide] | 5 (0) | 5 (0)
25 | CCCc1cc(CNC(=O)c2ccc(Br)cc2)on1 [III-264, N-[(3-propyl-5-isoxazolyl)methyl]-4-bromobenzamide] | 5 (0) | 5 (0)
26 | CCCc1cc(CNC(=O)c2ccc(Cl)cc2Cl)on1 [III-265, N-[(3-propyl-5-isoxazolyl)methyl]-2,4-dichlorobenzamide] | 5 (0) | 4 (1˜5)
27 | O=C(NCc1cc(CBr)no1)c1ccc(Cl)cc1Cl [III-275, N-[(3-bromomethyl-5-isoxazolyl)methyl]-2,4-dichlorobenzamide] | 2 (11˜20) | 2 (11˜20)
28 | O=C(NCc1cc(Cc2ccccc2)no1)c1ccccc1 [IV-1, N-[(3-benzyl-5-isoxazolyl)methyl]benzamide] | 5 (0) | 5 (0)
29 | COc1ccc(C(=O)NCc2cc(Cc3ccccc3)no2)cc1 [IV-2, N-[(3-benzyl-5-isoxazolyl)methyl]-4-methoxybenzamide] | 5 (0) | 5 (0)
30 | Cc1ccc(C(=O)NCc2cc(Cc3ccccc3)no2)cc1 [IV-3, N-[(3-benzyl-5-isoxazolyl)methyl]-4-methylbenzamide] | 5 (0) | 5 (0)
31 | O=C(NCc1cc(Cc2ccccc2)no1)C1CCCCC1 [IV-4, (3-benzyl-5-isoxazolyl)methylaminocarbonylcyclohexane] | 4 (1˜5) | 4 (1˜5)
32 | COc1ccc(Cc2cc(CNC(=O)c3ccc(OC)cc3)on2)cc1 [IV-9, N-{[3-(4-methoxybenzyl)-5-isoxazolyl]methyl}-4-methoxybenzamide] | 5 (0) | 5 (0)
33 | Cc1ccc(Cc2cc(CNC(=O)c3ccc(C)cc3)on2)cc1 [IV-10, N-{[3-(4-methylbenzyl)-5-isoxazolyl]methyl}-4-methylbenzamide] | 5 (0) | 5 (0)
34 | Cc1ccc(C(=O)NCc2cc(Cc3cccc(C)c3)no2)cc1 [IV-11, N-{[3-(3-methylbenzyl)-5-isoxazolyl]methyl}-4-methylbenzamide] | 5 (0) | 5 (0)
35 | Cc1ccc(C(=O)NCc2cc(Cc3ccccc3C)no2)cc1 [IV-12, N-{[3-(2-methylbenzyl)-5-isoxazolyl]methyl}-4-methyl benzamide] | 5 (0) | 5 (0)
36 | CC(c1ccccc1)c1cc(CNC(=O)c2ccccc2)on1 (stereo not shown) [IV-29, N-{[3-(1-phenylethyl)-5-isoxazolyl]methyl}benzamide] | 3 (6˜10) | 3 (6˜10)
37 | O=C(NCc1cc(CCc2ccccc2)no1)c1ccccc1 [IV-33, N-{[3-(2-phenylethyl)-5-isoxazolyl]methyl}benzamide] | 5 (0) | 5 (0)
38 | COc1ccc(C(=O)NCc2cc(CCc3ccccc3)no2)cc1 [IV-34, N-{[3-(2-phenylethyl)-5-isoxazolyl]methyl}-4-methoxybenzamide] | 5 (0) | 5 (0)
39 | Cc1ccc(C(=O)NCc2cc(CCc3ccccc3)no2)cc1 [IV-35, N-{[3-(2-phenylethyl)-5-isoxazolyl]methyl}-4-methylbenzamide] | 5 (0) | 5 (0)
40 | Cc1ccc(C(=O)NCc2cc(CSc3ccccc3)no2)cc1 [IV-40, N-[(3-phenylthiomethyl-5-isoxazolyl)methyl]-4-methylbenzamide] | 3 (6˜10) | 2 (11˜20)
41 | O=C(NCc1cc(COc2ccccc2)no1)c1ccccc1 [IV-44, N-[(3-phenoxymethyl-5-isoxazolyl)methyl]benzamide] | 5 (0) | 5 (0)
